This note sets out measurements from PubChem BioAssay AID330 (DTP/NCI, 2004).

“And” between values parts separate entries of the source, which are not always exact repeats. Equal values may be shown once. Toxic doses and inconclusive results are not listed.

The assay has as its system P388 leukemia ip, CD2F1 mice, survival T/C. Description: NCI In Vivo Anticancer Drug Screen. Data for tumor model P388 Leukemia (intraperitoneal) in CD2F1 (CDF1) mice. The conditions noted are these: endpoint: median survival time, higher = longer survival. In a few lines:
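Mice carrying the transplanted tumor received test compound or vehicle. Survival was recorded in each group, and the value is the treated-group measurement divided by that of the vehicle-treated control group.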

The mark [1] stands for this setting: dose: 30.0 mg/kg/injection, schedule: Q01DX005 (ip), vehicle: saline with Tween-80.
The mark [2] stands for this setting: dose: 60.0 mg/kg/injection, schedule: Q01DX005 (ip), vehicle: saline with Tween-80.
Where [3] appears, read: dose: 120.0 mg/kg/injection, schedule: Q01DX005 (ip), vehicle: saline with Tween-80.
Where [4] appears, read: dose: 240.0 mg/kg/injection, schedule: Q01DX005 (ip), vehicle: saline with Tween-80.
Where [5] appears, read: dose: 50.0 mg/kg/injection, schedule: Q01DX009 (ip), vehicle: saline.
Setting [6] is: dose: 6.25 mg/kg/injection, schedule: Q01DX009 (ip), vehicle: Klucel (hydroxypropylcellulose) (HPC).
Setting [7] is: dose: 12.5 mg/kg/injection, schedule: Q01DX009 (ip), vehicle: Klucel (hydroxypropylcellulose) (HPC).
Setting [8] is: dose: 50.0 mg/kg/injection, schedule: Q01DX009 (ip), vehicle: Klucel (hydroxypropylcellulose) (HPC).
Setting [9] is: dose: 25.0 mg/kg/injection, schedule: Q01DX009 (ip), vehicle: Klucel (hydroxypropylcellulose) (HPC).
Where [10] appears, read: dose: 100.0 mg/kg/injection, schedule: Q01DX009 (ip), vehicle: Klucel (hydroxypropylcellulose) (HPC).
The mark [11] stands for this setting: dose: 200.0 mg/kg/injection, schedule: Q01DX009 (ip), vehicle: Klucel (hydroxypropylcellulose) (HPC).
Setting [12] is: dose: 50.0 mg/kg/injection, schedule: Q01DX005 (ip), vehicle: saline with Tween-80.
Where [13] appears, read: dose: 100.0 mg/kg/injection, schedule: Q04DX003 (ip), vehicle: saline with Tween-80.
Setting [14] is: dose: 25.0 mg/kg/injection, schedule: Q01DX005 (ip), vehicle: Klucel (hydroxypropylcellulose) (HPC).
Setting [15] is: dose: 50.0 mg/kg/injection, schedule: Q01DX005 (ip), vehicle: Klucel (hydroxypropylcellulose) (HPC).
Where [16] appears, read: dose: 100.0 mg/kg/injection, schedule: Q01DX005 (ip), vehicle: Klucel (hydroxypropylcellulose) (HPC).

Turning to `Cc1cc(NS(=O)(=O)c2ccc(NC(=O)NCCCl)cc2)no1`, the T/C (dose: 30.0 mg/kg/injection, schedule: Q01DX005 (ip), vehicle: Klucel (hydroxypropylcellulose) (HPC)) is 99 % of control; the T/C (dose: 60.0 mg/kg/injection, schedule: Q01DX005 (ip), vehicle: Klucel (hydroxypropylcellulose) (HPC)) is 98 % of control; the T/C (dose: 120.0 mg/kg/injection, schedule: Q01DX005 (ip), vehicle: Klucel (hydroxypropylcellulose) (HPC)) is 100 % of control; the T/C (dose: 240.0 mg/kg/injection, schedule: Q01DX005 (ip), vehicle: Klucel (hydroxypropylcellulose) (HPC)) was 100 % of control.

In the case of `C1=C(c2ccccc2)C(=Nc2ccccc2)SC1=Nc1ccccc1`, the T/C by setting is: (dose: 1.87 mg/kg/injection, schedule: Q01DX005 (ip), vehicle: saline with Tween-80) 113 % of control; (dose: 7.5 mg/kg/injection, schedule: Q01DX005 (ip), vehicle: saline with Tween-80) 107 % of control; under setting [1], 100 % of control; under setting [2], 120 % of control; under setting [3], 122 % of control; under setting [4], 120 % of control.

As to `COc1ccc(-c2cc3cc(OC)c(OC)cc3cn2)cc1OC`, the T/C (dose: 6.25 mg/kg/injection, schedule: Q01DX009 (ip), vehicle: suspension in saline) was 99 % of control; the T/C (dose: 12.5 mg/kg/injection, schedule: Q01DX009 (ip), vehicle: suspension in saline) is 98 % of control; the T/C (dose: 25.0 mg/kg/injection, schedule: Q01DX009 (ip), vehicle: saline) was 98 % of control; the T/C (dose: 25.0 mg/kg/injection, schedule: Q01DX009 (ip), vehicle: suspension in saline) was 97 % of control; the T/C under setting [5] is 90 % of control.

With `ClC(Cl)(Cl)C1=NCc2nnn(Cc3ccccc3)c2N1`, the T/C is 113 % of control under setting [6]; 118 % of control (dose: 6.25 mg/kg/injection, schedule: Q01DX009 (ip), vehicle: saline with Tween-80); 114 % of control under setting [7]; 115 % of control and 117 % of control (dose: 12.5 mg/kg/injection, schedule: Q01DX009 (ip), vehicle: saline with Tween-80); 105 % of control and 106 % of control (dose: 25.0 mg/kg/injection, schedule: Q01DX009 (ip), vehicle: saline with Tween-80); 104 % of control under setting [8]. For the same molecule, the T/C is, setting by setting: (dose: 100.0 mg/kg/injection, schedule: Q01DX009 (ip), vehicle: saline with Tween-80) 110 % of control; (dose: 200.0 mg/kg/injection, schedule: Q01DX009 (ip), vehicle: saline with Tween-80) 100 % of control and 113 % of control; (dose: 400.0 mg/kg/injection, schedule: Q01DX009 (ip), vehicle: saline with Tween-80) 96 % of control.

Take `CCN(CC)C(=O)Oc1cc(C(=O)N(CC)CC)c(OC(=O)N(CC)CC)cc1C(=O)N(CC)CC`: the T/C under setting [2] was 101 % of control, the T/C under setting [3] is 92 % of control and the T/C under setting [4] is 89 % of control.

For `O/N=C/c1cc[n+](CCC[n+]2ccc(/C=N/O)cc2)cc1`, the T/C runs as follows: (dose: 5.0 mg/kg/injection, schedule: Q01DX009 (ip), vehicle: saline) 100 % of control; (dose: 10.0 mg/kg/injection, schedule: Q01DX009 (ip), vehicle: saline) 90 % of control; (dose: 20.0 mg/kg/injection, schedule: Q01DX009 (ip), vehicle: saline) 100 % of control.

As for `c1ccc(-c2nnc(-c3ccccn3)nn2)nc1`, the T/C by setting is: under setting [9], 100 % of control; under setting [8], 99 % of control; under setting [10], 100 % of control; under setting [11], 108 % of control; (dose: 400.0 mg/kg/injection, schedule: Q01DX009 (ip), vehicle: Klucel (hydroxypropylcellulose) (HPC)) 96 % of control.

For the molecule `CCCCCCCCc1c(C)nc(N)[nH]c1=O`, the T/C under setting [2] was 109 % of control, the T/C under setting [3] was 94 % of control and the T/C under setting [4] is 88 % of control.

On to `COC1=CC(=O)C(C2(OC(C)C)OC(=O)C(Cl)=C2Cl)=CC1=O` (stereo not drawn), for which the T/C reads like this: under setting [12], 119 % of control; (dose: 100.0 mg/kg/injection, schedule: Q01DX005 (ip), vehicle: saline with Tween-80) 111 % of control.

Regarding `CCOC(=O)c1cc(CC)sc1NC(=O)CC(C)=O`, the T/C runs as follows: under setting [2], 97 % of control; under setting [3], 100 % of control; under setting [4], 97 % of control.

Take `CN(C)c1ccc(C2N(C)CCN2C)cc1`: the T/C reads like this: under setting [2], 93 % of control; under setting [3], 99 % of control; under setting [4], 103 % of control.

With `N#CCSc1nc(N)nc2nc[nH]c12`, the T/C reads like this: (dose: 50.0 mg/kg/injection, schedule: Q01DX009 (ip), vehicle: saline sonified) 95 % of control; (dose: 50.0 mg/kg/injection, schedule: Q04DX003 (ip), vehicle: saline with Tween-80) 95 % of control; (dose: 100.0 mg/kg/injection, schedule: Q01DX009 (ip), vehicle: saline sonified) 100 % of control; under setting [13], 100 % of control; (dose: 200.0 mg/kg/injection, schedule: Q01DX009 (ip), vehicle: saline sonified) 95 % of control; (dose: 200.0 mg/kg/injection, schedule: Q04DX003 (ip), vehicle: saline with Tween-80) 95 % of control.

In the case of `CN=C(N)NN=C(c1ccc(Cl)cc1)c1ccc(Cl)cc1`, the T/C is 101 % of control (dose: 6.25 mg/kg/injection, schedule: Q04DX002 (ip), vehicle: saline with Tween-80); 102 % of control (dose: 12.5 mg/kg/injection, schedule: Q04DX002 (ip), vehicle: saline with Tween-80); 158 % of control (dose: 25.0 mg/kg/injection, schedule: Q04DX002 (ip), vehicle: saline with Tween-80).

For `CC1(C)CC(O)C2OC2(C)C1` (stereo not drawn), the T/C was 94 % of control under setting [5]; 89 % of control (dose: 100.0 mg/kg/injection, schedule: Q01DX009 (ip), vehicle: saline); 101 % of control (dose: 200.0 mg/kg/injection, schedule: Q01DX009 (ip), vehicle: saline).

`CC(=O)Nc1cccc2nc(-c3ccccn3)n(CCc3ccccn3)c12`: the T/C is 105 % of control under setting [14]; 102 % of control under setting [15]; 103 % of control under setting [16]; 109 % of control (dose: 200.0 mg/kg/injection, schedule: Q01DX005 (ip), vehicle: Klucel (hydroxypropylcellulose) (HPC)).

Regarding `COC(=O)C(CCC1CCCCN1)(c1ccccc1)c1ccccc1` (stereo not drawn), the T/C is, setting by setting: (dose: 25.0 mg/kg/injection, schedule: Q04DX003 (ip), vehicle: saline with Tween-80) 120 % of control; (dose: 66.0 mg/kg/injection, schedule: Q04DX003 (ip), vehicle: saline with Tween-80) 100 % of control; under setting [13], 150 % of control and 158 % of control.

`CCN1C(Cl)=NS(=O)(=O)c2ccccc21`: the T/C was 116 % of control (dose: 15.0 mg/kg/injection, schedule: Q01DX005 (ip), vehicle: saline with Tween-80); 113 % of control under setting [1]; 100 % of control under setting [2].

In the case of `Cc1nc2ccccc2c(=O)o1`, the T/C is 97 % of control under setting [8]; 98 % of control under setting [10]; 105 % of control (dose: 100.0 mg/kg/injection, schedule: Q04DX002 (ip), vehicle: Klucel (hydroxypropylcellulose) (HPC)); 90 % of control under setting [11]; 107 % of control (dose: 200.0 mg/kg/injection, schedule: Q04DX002 (ip), vehicle: Klucel (hydroxypropylcellulose) (HPC)); 100 % of control (dose: 400.0 mg/kg/injection, schedule: Q04DX002 (ip), vehicle: Klucel (hydroxypropylcellulose) (HPC)).

For `O=[N+]([O-])c1ccc(Cl)nc1Sc1ncccn1`, the T/C under setting [6] is 96 % of control, the T/C under setting [7] was 91 % of control, the T/C under setting [9] was 104 % of control and the T/C under setting [10] is 95 % of control.

In the case of `Cc1ccc(C2=NN(c3ccccc3)C(c3ccccc3)C2NC2CCCCC2)cc1` (stereo not drawn), the T/C was 90 % of control under setting [14], 90 % of control under setting [15] and 89 % of control under setting [16].

For the molecule `CCCCN=NNCCCC`, the T/C reads like this: (dose: 12.5 mg/kg/injection, schedule: Q01DX005 (ip), vehicle: saline with Tween-80) 110 % of control; under setting [12], 151 % of control.
